Like-named read-outs stand apart in the source and are kept apart here.
Tests used:
[1] = Aqueous solubility of HPPs and parent drugs; format: physicochemical
[2] = tested on: mice; assay: Analgesic activity, acetic acid writhing inhibition; format: in vivo; conditions: 100 mg/kg transdermally, versus control group
Procedure: Acetic acid solution was administered intraperitoneally to a group of mice (6 mice every group) 120 minutes after a test compound was administered to the mice at the dosage specified in the tables below. The prodrug compounds were administered either transdermally or orally. N-acetyl-p-aminophenyl dimethylaminobutyrate.HCl (100 mg/kg, B) and 4-acetamidophenyl 2((4-(dimethylamino)butanoyl)oxy)benzoate.HCl, (100 mg/kg, C) were administered transdermally. The number of writhings that occurred when mice were administered the acetic acid solution were counted, and the rate of inhibition based on the control group which was not pretreated with any test compounds was calculated. […] Group A was the control group.

[3] = In vitro penetration rate through human skin in modified Franz cells; format: in vitro ADME; conditions: isolated human skin 360-400 μm, 2 mL, 20% in 0.2 M phosphate buffer pH 7.4
Procedure: The penetration rates of HPPs of 4-aminophenol derivatives and their parent drugs through human skin were measured in vitro by modified Franz cells. […] The human skin tissue (360-400 μm thick) that separated the top and the receptor chambers was isolated from the anterior or posterior thigh areas.
The amount of the tested compound penetrating the skin was determined by high-performance liquid chromatography (HPLC) method.
The lowest detectable apparent flux values in this method was 1 μg/cm^2/h, the parent drugs tested (e.g. acetaminophen and acetaminosalol) had […], and the corresponding HPPs had higher apparent flux value.

[4] = tested on: rats; assay: Antipyretic activity in rats given E. coli suspension as pyrogen; format: in vivo; conditions: 100 mg/kg transdermally
Procedure: Rats received a sterilized E. coli suspension as a pyrogen. The control group was group A. 2 hours later, N-acetyl-p-aminophenyl dimethylaminobutyrate.HCl (100 mg/kg, B) and 4-acetamidophenyl 2((4-(dimethylamino)butanoyl)oxy)benzoate.HCl, (100 mg/kg, C) were administered transdermally respectively. The body temperature of rats was taken at 90 min. intervals before and after the administration of the test compounds.

[5] = Plasma levels of parent compounds after transdermal administration to hairless mice; format: in vivo; conditions: transdermal on 10 cm^2 back skin; for Plasma concentration of the parent compound (peak plasma level): 20% solution or suspension in 1 ml 70% ethanol; for t (time to peak plasma level of the parent compound): 20% in 1 ml 70% ethanol
Procedure: Test compounds (20% solution or suspension of HPPs or parent drugs in 1 ml of 70% ethanol) were administered transdermally to 10 cm^2 skin on the backs of hairless mice. The plasma levels of the parent compounds were determined by HPLC.

[6] = In vivo transportation: amounts in organs and tissue of rats after application to back skin; conditions: 6 hours after 20% in 1 mL 50% ethanol on 10 cm^2 back skin
Procedure: N-Acetyl-p-aminophenyl dimethylaminobutyrate.HCl (20% in 1 mL of 50% ethanol) was applied to about 10 cm^2 skin on the backs of rats (˜200 g). After 6 hours, the rats were terminated, and methanol (5 mL) was added to 1 g of tissue on the back of rat (under the skin), 1 ml of blood, 1 g of liver, 1 g of kidney, and 1 g of brain respectively (the tissue, liver, kidney or brain was washed with pH 7.2 buffer for three times) and the mixtures were homogenized. The samples were then centrifuged for 5 min and analyzed using HPLC.

[7] = in vivo; conditions: mouse
[8] = water (aqueous), read-out: Solubility

CC(=O)Nc1ccc(OC(=O)c2ccccc2OC(=O)CCCN(C)C)cc1.Cl [4-acetamidophenyl 2((4-(dimethylamino)butanoyl)oxy)benzoate.HCl]
solubility [1]: >400 mg/mL | rate of writhings inhibition [2]: 55% | In vitro Penetration rate (apparent flux) [3]: 1800 μg/cm^2/h | body temperature, t = 0 min. [4]: 37.27 ± 0.06 | body temperature, t = 90 min. [4]: 36.63 ± 0.05 | body temperature, t = 180 min. [4]: 36.52 ± 0.08 | body temperature, t = 270 min. [4]: 36.50 ± 0.07 | Plasma concentration of the parent compound (peak plasma level) [5]: 30000 ng/mL | t (time to peak plasma level of the parent compound) ([5]; prodrug compound): ~50 min

CC(=O)Nc1ccc(OC(=O)CCCN(C)C)cc1.Cl [N-Acetyl-p-Aminophenyl Dimethylaminobutyrate.HCl]
solubility [1]: >400 mg/mL | rate of writhings inhibition [2]: 55% | In vitro Penetration rate (apparent flux) [3]: 1500 μg/cm^2/h | N-acetyl-p-aminophenyl dimethylaminobutyrate detected in blood [6]: 10 ± 4 µg/g | N-acetyl-p-aminophenyl dimethylaminobutyrate detected in brain [6]: 3 ± 3 µg/g | N-acetyl-p-aminophenyl dimethylaminobutyrate detected in kidney [6]: 6 ± 4 µg/g | N-acetyl-p-aminophenyl dimethylaminobutyrate detected in liver [6]: 7 ± 4 µg/g | N-acetyl-p-aminophenyl dimethylaminobutyrate detected in under-skin tissue [6]: 15 ± 8 µg/g | acetaminophen detected in blood [6]: 30 ± 8 µg/g | acetaminophen detected in brain [6]: 10 ± 8 µg/g | acetaminophen detected in kidney [6]: 20 ± 10 µg/g | acetaminophen detected in liver [6]: 20 ± 10 µg/g | acetaminophen detected in under-skin tissue [6]: 60 ± 10 µg/g | body temperature, t = 0 min. [4]: 37.32 ± 0.06 | body temperature, t = 90 min. [4]: 36.61 ± 0.05 | body temperature, t = 180 min. [4]: 36.50 ± 0.08 | body temperature, t = 270 min. [4]: 36.50 ± 0.07 | Plasma concentration of the parent compound (peak plasma level) [5]: 30000 ng/mL | t (time to peak plasma level of the parent compound) ([5]; prodrug compound): ~50 min

CC(=O)Nc1ccc(O)cc1 [acetaminophen, N-Acetyl-p-aminophenol, reference compound]
solubility [1, 8]: < 0.2 mg/mL | In vitro Penetration rate (apparent flux) [3]: 10 μg/cm^2/h | LD50 [7]: 340 mg/kg | Plasma concentration of the parent compound (peak plasma level) [5]: 100 ng/mL | t (time to peak plasma level of the parent compound) ([5]; parent compound): ~300 min

CC(=O)Nc1ccc(OC(=O)c2ccccc2O)cc1 [acetaminosalol, 4-acetamidophenyl salicylate, reference compound]
solubility [1, 8]: < 0.1 mg/mL | In vitro Penetration rate (apparent flux) [3]: 10 μg/cm^2/h | LD50 [7]: 550 mg/kg | Plasma concentration of the parent compound (peak plasma level) [5]: 100 ng/mL | t (time to peak plasma level of the parent compound) ([5]; parent compound): ~300 min
